Patent publication US6461997B1, “Triazole sulfones having herbicidal activity” (Monsanto Technology LLC, priority 1999, dated 2002)

Legend:
[1] = test system: GALAP (catchweed bedstraw); assay: Pre-emergence herbicidal activity, cool season; type: in vivo, Galium aparine; conditions: lowest tested rate with 80% or greater inhibition; rates 300, 100, 30, 10 g/ha; about 14 days
How it was run: (§1)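 GR80 values derive from percent inhibition relative to untreated plants, read roughly 14 days after sowing and pre-emergence soil-surface treatment (compound in 50:50 acetone/water; rates typically 10, 30, 100, 300 g/ha). Warm-season weeds grew at 30/21° C day/night, cool-season ones at 18/13° C; an asterisk marks activity without reaching 80% at the highest rate.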

[2] = test system: CHEAL (common lambsquarters); assay: Pre-plant incorporated (PPI) herbicidal activity, warm season; type: in vivo, Chenopodium album; conditions: for Percent inhibition CHEAL: PPI application; for PPI activity (GR80) CHEAL: pre-plant incorporated, GR80 = lowest tested rate with 80% or greater inhibition, approx. 14 days after treating, 30/21° C.
How it was run: (§2)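 First, seeds were placed on topsoil compacted to 1.0–1.25 cm below the pot rim. Next, cover soil treated with sprayed test compound and mixed was added over them. Pots then received 0.64 cm irrigation at 30/21° C or 18/13° C day/night, and inhibition versus untreated was rated near day 14.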

[3] = test system: CIRAR (canada thistle (seedling)); assay: as above; type: in vivo, Cirsium arvense; conditions: GR80 = lowest tested rate with 80% or greater inhibition, approx. 14 days after treating, 30/21° C.
Experimental: (§3) In another set of tests, the pre-plant incorporated (PPI) activity of compounds of this invention was evaluated on the same species as for the pre-emergence tests described above. In the PPI tests the following procedure, designed to simulate PPI application, was used.
(§4) A pre-prepared topsoil mixture (described above) was placed in a pot and compacted to a depth of 1.0 to 1.25 cm from the top of the pot. Seeds of each of several monocotyledonous and dicotyledonous annual plant species were placed on top of the soil. A sufficient quantity of soil to cover the seeds and level fill the pot was weighed into an open container. A known amount of the test compound was dissolved or suspended in an organic solvent and applied by spraying to this cover soil. The cover soil was thoroughly mixed to distribute the test compound throughout the cover soil, and was then applied as a cover layer over the seeds. Untreated soil was used as a cover layer for control pots. After treatment the plants were placed in a greenhouse where they received 0.64 cm of overhead irrigation. All subsequent watering consisted of a light overhead mist and/or subirrigation as needed for germination and growth. Tables 9 and 10 below relate to warm season plant species which were placed after pre-emergence treatment in a greenhouse with a 30/21° C. day/night temperature regime. Tables 11 and 12 below relates to cool season plant species placed after pre-emergence treatment in a greenhouse or growth chamber with an 18/13° C. day/night temperature regime. Only the compounds of Examples 1, 6, 8, 11, 13 and 15-20 were included in PPI tests.
(§5) Approximately 14 days after planting and treating, the plants were observed and herbicidal efficacy recorded as percent inhibition by comparison with untreated plants.

ECHCG (barnyardgrass) = assay: Pre-emergence herbicidal activity, warm season; type: in vivo, Echinochloa crus-galli; conditions: GR80 = lowest tested rate (300, 100, 30, 10 g/ha) with 80% or greater inhibition; approx. 14 days after treating; 30/21° C.
How it was run: as §1

oilseed rape (BRSNS) = assay: Selectivity test, PPI, cool season crop; type: in vivo, Brassica napus; conditions: PPI application; for inhibition at 10 g/ha / inhibition at 30 g/ha / inhibition at 100 g/ha / inhibition at 300 g/ha / inhibition at 900 g/ha: Brassica napus, read-out: Percent inhibition BRSNS
How it was run: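 Percent inhibition relative to untreated controls, assessed roughly 14 days post-planting. Seeds were covered with a soil layer into which solvent-borne compound had been sprayed and mixed. Plants were then grown at 30/21° C. (warm season) or 18/13° C. (cool season) day/night regimes.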

POROL (common purslane) [4] = assay: Pre-emergence herbicidal activity, warm season; type: in vivo, Portulaca oleracea; conditions: GR80 = lowest tested rate (300, 100, 30, 10 g/ha) with 80% or greater inhibition; approx. 14 days after treating; 30/21° C.
How it was run: as §1

SOLNI (black nightshade) [5] = assay: Pre-emergence herbicidal activity, warm season; type: in vivo, Solanum nigrum; conditions: GR80 = lowest tested rate (300, 100, 30, 10 g/ha) with 80% or greater inhibition; approx. 14 days after treating; 30/21° C.
How it was run: as §1

AMARE (redroot pigweed) = assay: Pre-emergence herbicidal activity, warm season; type: in vivo, Amaranthus retroflexus; conditions: GR80 = lowest tested rate (300, 100, 30, 10 g/ha) with 80% or greater inhibition; approx. 14 days after treating; 30/21° C.
How it was run: as §1

AVEFA (wild oat) = assay: Pre-emergence herbicidal activity, cool season; type: in vivo, Avena fatua; conditions: GR80 = lowest tested rate (300, 100, 30, 10 g/ha) with 80% or greater inhibition; approx. 14 days after treating; 18/13° C.
How it was run: as §1

[6] = test system: PANMI (wild proso millet); assay: Pre-plant incorporated (PPI) herbicidal activity, warm season; type: in vivo, Panicum miliaceum; conditions: for Percent inhibition PANMI / inhibition at 10 g/ha / inhibition at 30 g/ha / inhibition at 100 g/ha / inhibition at 300 g/ha / inhibition at 900 g/ha: PPI application; for PPI activity GR80, PANMI: pre-plant incorporated, lowest tested rate with 80% or greater inhibition, about 14 days; for inhibition at 10 g/ha / inhibition at 30 g/ha / inhibition at 100 g/ha / inhibition at 300 g/ha / inhibition at 900 g/ha: Panicum miliaceum, read-out: Percent inhibition PANMI
How it was run: as §2

SOLNI (black nightshade) [7] = assay: as above; type: in vivo, Solanum nigrum; conditions: for Percent inhibition SOLNI / inhibition at 10 g/ha / inhibition at 30 g/ha / inhibition at 100 g/ha / inhibition at 300 g/ha / inhibition at 900 g/ha: PPI application; for PPI activity (GR80) SOLNI: pre-plant incorporated, GR80 = lowest tested rate with 80% or greater inhibition, approx. 14 days after treating, 30/21° C.; for inhibition at 10 g/ha / inhibition at 30 g/ha / inhibition at 100 g/ha / inhibition at 300 g/ha / inhibition at 900 g/ha: Solanum nigrum, read-out: Percent inhibition SOLNI
How it was run: as §2

POROL (common purslane) [8] = assay: as above; type: in vivo, Portulaca oleracea; conditions: GR80 = lowest tested rate with 80% or greater inhibition, approx. 14 days after treating, 30/21° C.
Experimental: as §3, §4, §5

Row | Structure (SMILES) | Pre-emergence activity GR80, GALAP [1] [g/ha] | PPI activity (GR80) CHEAL [2] [g/ha] | PPI activity (GR80) CIRAR [3] [g/ha] | Pre-emergence activity (GR80) ECHCG (ECHCG (barnyardgrass)) [g/ha] | Pre-emergence activity (GR80) POROL (POROL (common purslane) [4]) [g/ha] | Pre-emergence activity (GR80) SOLNI (SOLNI (black nightshade) [5]) [g/ha] | Pre-emergence activity (GR80) AMARE (AMARE (redroot pigweed)) | Pre-emergence activity (GR80) AVEFA (AVEFA (wild oat)) | PPI activity GR80, PANMI [6] [g/ha] | PPI activity (GR80) SOLNI (SOLNI (black nightshade) [7]) [g/ha] | PPI activity (GR80) POROL (POROL (common purslane) [8]) [g/ha] | inhibition at 10 g/ha (oilseed rape (BRSNS); 10 g/ha) [%] | inhibition at 30 g/ha (oilseed rape (BRSNS); 30 g/ha) [%] | inhibition at 300 g/ha (oilseed rape (BRSNS); 300 g/ha) [%] | inhibition at 900 g/ha (oilseed rape (BRSNS); 900 g/ha) [%] | inhibition at 10 g/ha ([6]; 10 g/ha) [%] | inhibition at 30 g/ha ([6]; 30 g/ha) [%] | inhibition at 100 g/ha ([6]; 100 g/ha) [%] | inhibition at 300 g/ha ([6]; 300 g/ha) [%] | inhibition at 900 g/ha ([6]; 900 g/ha) [%] | other results
1 | CCN(CC)C(=O)n1cnc(S(=O)(=O)C(F)(F)C(F)F)n1 [Example 16] | 100 | 30 | 30 | 100 | 100 | 100 | 300 g/ha | 300 g/ha | 30 | 30 | 10 | – | – | – | – | – | – | – | – | – | Percent inhibition CHEAL ([2]; 10 g/ha): 100%; Percent inhibition CHEAL ([2]; 30 g/ha): 100%; Percent inhibition CHEAL ([2]; 100 g/ha): 100%; Percent inhibition CHEAL ([2]; 300 g/ha): 100%; Percent inhibition CHEAL ([2]; 900 g/ha): 100%; Percent inhibition BRSNS (oilseed rape (BRSNS); 10 g/ha): 0%; Percent inhibition BRSNS (oilseed rape (BRSNS); 30 g/ha): 0%; Percent inhibition BRSNS (oilseed rape (BRSNS); 100 g/ha): 0%; Percent inhibition BRSNS (oilseed rape (BRSNS); 300 g/ha): 30%; Percent inhibition BRSNS (oilseed rape (BRSNS); 900 g/ha): 75%; Percent inhibition PANMI ([6]; 10 g/ha): 100%; Percent inhibition PANMI ([6]; 30 g/ha): 100%; Percent inhibition PANMI ([6]; 100 g/ha): 100%; Percent inhibition PANMI ([6]; 300 g/ha): 100%; Percent inhibition PANMI ([6]; 900 g/ha): 100%; Percent inhibition SOLNI (SOLNI (black nightshade) [7]; 10 g/ha): 100%; Percent inhibition SOLNI (SOLNI (black nightshade) [7]; 100 g/ha): 100%; Percent inhibition SOLNI (SOLNI (black nightshade) [7]; 300 g/ha): 95%; Percent inhibition SOLNI (SOLNI (black nightshade) [7]; 900 g/ha): 100%
2 | C=CCC(F)(F)S(=O)(=O)c1ncn(C(=O)N(CC)CC)n1 [Example 17, 1-(N,N-diethylcarbamoyl)-3-[(1,1-difluoro-3-butenyl)sulfonyl]-1,2,4-triazole] | 100 | 300 | 300 | 100 | 300 | 100 | 300 g/ha | 100 g/ha | 10 | 30 | 30 | 0 | 0 | 60 | 95 | 60 | 100 | 100 | 100 | 100 | inhibition at 100 g/ha (oilseed rape (BRSNS); 100 g/ha): 0%; inhibition at 10 g/ha (SOLNI (black nightshade) [7]; 10 g/ha): 0%; inhibition at 30 g/ha (SOLNI (black nightshade) [7]): 0%; inhibition at 100 g/ha (SOLNI (black nightshade) [7]; 100 g/ha): 80%; inhibition at 300 g/ha (SOLNI (black nightshade) [7]; 300 g/ha): 70%; inhibition at 900 g/ha (SOLNI (black nightshade) [7]; 900 g/ha): 100%
3 | C=C(C)CC(F)(F)S(=O)(=O)c1ncn(C(=O)N(CC)CC)n1 [Example 18] | 300 | 30 | 30 | 100 | 100 | 100 | 300 g/ha | * (activity observed, at least at highest rate, but <80% inhibition) | 100 | 300 | 100 | 0 | 0 | 20 | 100 | 0 | 40 | 100 | 100 | 100 | inhibition at 10 g/ha (SOLNI (black nightshade) [7]; 10 g/ha): 0%; inhibition at 30 g/ha (SOLNI (black nightshade) [7]): 0%; inhibition at 100 g/ha (SOLNI (black nightshade) [7]; 100 g/ha): 20%; inhibition at 300 g/ha (SOLNI (black nightshade) [7]; 300 g/ha): 99%; inhibition at 900 g/ha (SOLNI (black nightshade) [7]; 900 g/ha): 90%
4 | C=C(Br)CC(F)(F)S(=O)(=O)c1ncn(C(=O)N(CC)CC)n1 [Example 19] | 300 | 100 | 300 | 300 | 300 | 300 | * (activity observed, at least at highest rate, but <80% inhibition) | * (activity observed, at least at highest rate, but <80% inhibition) | 100 | 100 | 100 | 0 | 0 | 60 | 95 | 0 | 60 | 100 | 100 | 100 | inhibition at 100 g/ha (oilseed rape (BRSNS); 100 g/ha): 0%; inhibition at 10 g/ha (SOLNI (black nightshade) [7]; 10 g/ha): 0%; inhibition at 30 g/ha (SOLNI (black nightshade) [7]): 0%; inhibition at 100 g/ha (SOLNI (black nightshade) [7]; 100 g/ha): 0%; inhibition at 300 g/ha (SOLNI (black nightshade) [7]; 300 g/ha): 40%; inhibition at 900 g/ha (SOLNI (black nightshade) [7]; 900 g/ha): 90%
